# Results reported in patent publication US20240360148A1 (SUVALENT THERAPEUTICS, INC., priority 2021, published 2024).
# Experiments:
# SAE1 = SAE1 (Homo sapiens (Human), UniProt Q9UBE0+Q9UBT2); assay: SAE High Throughput Biochemical Assay (HTRF), 15 min preincubation; conditions: read-out: 15 min preincubation HTRF IC50 (μM) Ave, SAE1 12.5 nM, ATP 100 μM
# Procedure, shortened: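 SAE1 (12.5 nM) was preincubated with compound for 15 min at RT in HEPES pH 7.5, 0.1% BSA, 10 mM MgCl2. The reaction was then started with SUMO-GST and UBC9-His (40 nM each) plus 100 μM ATP for 45 min. After KF stop, HTRF (anti-GST-XL665/anti-His-EuK) was read at 2 h and overnight; some compounds were tested singly at 25 micromolar as percent of control.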
# [1] = test system: sumoylation levels (SUMO 2/3 conjugates) in HCT-116 cells; assay: HCT-116 4 Hour Cell Assay (Western, SUMO 2/3 conjugates); assay type: cell-based; conditions: Homo sapiens, HCT-116, 4 h, 4 h treatment, Anti-Sumo 2-3 immunoblot, read-out: HCT-116 Western 4 h IC50 (μM) Ave
# Procedure, shortened: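 Cells treated 4 h with 11 three-fold dilutions from 25 μM; lysed in RIPA with NEM and Benzonase. Non-reducing SDS-PAGE immunoblot with anti-SUMO 2/3 mAb, IRDye fluorescent detection; conjugate signal normalized to total protein stain, IC50 from quantified bands.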
# Sequence of SAE1 (Q9UBE0 whole entry): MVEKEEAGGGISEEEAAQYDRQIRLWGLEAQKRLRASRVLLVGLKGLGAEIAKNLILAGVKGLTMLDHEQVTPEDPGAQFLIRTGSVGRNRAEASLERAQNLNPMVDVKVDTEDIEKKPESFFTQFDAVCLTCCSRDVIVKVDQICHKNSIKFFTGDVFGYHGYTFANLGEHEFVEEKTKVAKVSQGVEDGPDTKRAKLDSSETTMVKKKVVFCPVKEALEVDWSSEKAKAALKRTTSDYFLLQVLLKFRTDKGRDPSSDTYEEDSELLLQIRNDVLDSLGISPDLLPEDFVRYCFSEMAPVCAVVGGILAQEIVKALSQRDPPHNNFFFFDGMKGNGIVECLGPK
# Sequence of SAE1 (Q9UBT2 whole entry): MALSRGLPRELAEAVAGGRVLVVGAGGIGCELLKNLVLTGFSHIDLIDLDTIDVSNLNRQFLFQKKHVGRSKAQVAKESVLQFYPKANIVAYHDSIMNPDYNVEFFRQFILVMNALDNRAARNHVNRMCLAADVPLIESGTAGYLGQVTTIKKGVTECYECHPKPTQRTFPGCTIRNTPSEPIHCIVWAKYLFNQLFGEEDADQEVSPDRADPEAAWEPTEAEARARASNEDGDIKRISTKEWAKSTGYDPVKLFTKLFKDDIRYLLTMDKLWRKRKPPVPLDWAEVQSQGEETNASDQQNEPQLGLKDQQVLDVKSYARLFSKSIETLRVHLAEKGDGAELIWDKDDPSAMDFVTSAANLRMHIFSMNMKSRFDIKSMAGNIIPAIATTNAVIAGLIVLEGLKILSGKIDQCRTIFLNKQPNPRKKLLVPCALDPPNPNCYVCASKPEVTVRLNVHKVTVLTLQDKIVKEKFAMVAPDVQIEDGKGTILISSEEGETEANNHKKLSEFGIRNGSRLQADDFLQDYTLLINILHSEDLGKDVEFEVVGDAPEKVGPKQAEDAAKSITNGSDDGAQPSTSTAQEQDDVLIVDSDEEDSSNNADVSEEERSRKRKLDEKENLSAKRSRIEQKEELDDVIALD
Compound,IC50 [1],IC50 (SAE1)
"CCn1cc(-c2ccccc2[C@@H]2CN(C(=O)/C=C/C3CCCCN3)Cc3sc(C#N)cc32)c(C(F)(F)F)n1 (stereo partly drawn) [Example 111, (4S)-4-(2-(1-Ethyl-3-(trifluoromethyl)-1H pyrazol-4-yl)phenyl)-6-((E)-3-(piperidin-2-yl)acryloyl)-4,5,6,7-tetrahydrothieno[2,3-c]pyridine-2-carbonitrile]",0.909 µM,3.36 µM
"CCCCNC/C=C/C(=O)N1Cc2sc(C#N)cc2[C@H](c2ccccc2-c2cn(CC)nc2C(F)(F)F)C1 [Example 103, (S, E)-6-(4-(Butylamino)but-2-enoyl)-4-(2-(1-ethyl-3-(trifluoromethyl)-1 H-pyrazol-4-yl)phenyl)-4,5,6,7-tetrahydrothieno[2,3-c]pyridine-2-carbonitrile]",1.66 µM,2.66 µM
"CCn1cc(-c2c(F)cccc2[C@@H]2CN(C(=O)/C=C/[C@@H]3C[C@@H](OC)CN3)Cc3sc(C#N)cc32)c(C(F)(F)F)n1 [Example 120, (S)-4-(2-(1-Ethyl-3-(trifluoromethyl)-1H pyrazol-4-yl)-3-fluorophenyl)-6-((E)-3-((2S,4R)-4-methoxypyrrolidin-2-yl)acryloyl)-4,5,6,7-tetrahydrothieno[2,3-c]pyridine-2-carbonitrile]",0.383 µM,0.31 µM
Cc1c(C#N)sc2c1[C@H](c1cccc(F)c1-c1c[nH]nc1C(F)(F)F)CN(C(=O)/C=C/CN(C)C)C2 [Compound 221],0.134 µM,0.347 µM
"CCn1cc(-c2ccccc2[C@@H]2CN(C(=O)C#CCN(C)C)Cc3sc(C#N)cc32)c(C(F)(F)F)n1 [Example 132, (S)-6-(4-(Dimethylamino)but-2-ynoyl)-4-(2-(1-ethyl-3-(trifluoromethyl)-1 H-pyrazol-4-yl)phenyl)-4,5,6,7-tetrahydrothieno[2,3-c]pyridine-2-carbonitrile]",0.547 µM,0.18 µM
"CCn1cc(-c2c(F)cccc2[C@@H]2CN(C(=O)/C=C/[C@@H]3C[C@@H](F)CN3)Cc3sc(C#N)cc32)c(C(F)(F)F)n1 [Example 121, (S)-4-(2-(1-Ethyl-3-(trifluoromethyl)-1H pyrazol-4-yl)-3-fluorophenyl)-6-((E)-3-((2S,4R)-4-fluoropyrrolidin-2-yl)acryloyl)-4,5,6,7-tetrahydrothieno[2,3-c]pyridine-2-carbonitrile]",0.577 µM,0.43 µM
"CCn1cc(-c2ccccc2[C@@H]2CN(C(=O)C#CC3(N)CC3)Cc3sc(C#N)cc32)c(C(F)(F)F)n1 [Example 136, (S)-6-(3-(1-Aminocyclopropyl)propioloyl)-4-(2-(1-ethyl-3-(trifluoromethyl)-1 H-pyrazol-4-yl)phenyl)-4,5,6,7-tetrahydrothieno[2,3-c]pyridine-2-carbonitrile]",2.53 µM,4.13 µM
"CCn1cc(-c2ccccc2[C@@H]2CN(C(=O)/C=C/[C@H]3C[C@@H](C)CN3)Cc3sc(C#N)cc32)c(C(F)(F)F)n1 [Example 81, (S)-4-(2-(1-Ethyl-3-(trifluoromethyl)-1 H-pyrazol-4-yl)phenyl)-6-((E)-3-((2R, 4R)-4-methylpyrrolidin-2-yl)acryloyl)-4,5,6,7-tetrahydrothieno[2,3-c]pyridine-2-carbonitrile]",0.35 µM,2.69 µM
"CCn1cc(-c2ccccc2[C@@H]2CN(C(=O)/C=C/CNC3(C)CCOCC3)Cc3sc(C#N)cc32)c(C(F)(F)F)n1 [Example 96, (S,E)-4-(2-(1-Ethyl-3-(trifluoromethyl)-1H-pyrazol-4-yl)phenyl)-6-(4-((4-methyltetrahydro-2H pyran-4-yl)amino)but-2-enoyl)-4,5,6,7-tetrahydrothieno[2,3-c]pyridine-2-carbonitrile]",2.79 µM,2.92 µM
"CCn1cc(-c2ccccc2[C@@H]2CN(C(=O)/C=C/CN3CCCC3C)Cc3sc(C#N)cc32)c(C(F)(F)F)n1 (stereo partly drawn) [Example 31, (4S)-4-(2-(1-ethyl-3-(trifluoromethyl)-1 H-pyrazol-4-yl)phenyl)-6-((E)-4-(2-methylpyrrolidin-1-yl)but-2-enoyl)-4,5,6,7-tetrahydrothieno[2,3-c]pyridine-2-carbonitrile]",0.918 µM,10.2 µM
"CCn1cc(-c2ccccc2[C@@H]2CN(C(=O)C#CC3CCCN3)Cc3sc(C#N)cc32)c(C(F)(F)F)n1 (stereo partly drawn) [Example 139, (4S)-4-(2-(1-Ethyl-3-(trifluoromethyl)-1 H pyrazol-4-yl)phenyl)-6-(3-(pyrrolidin-2-yl)propioloyl)-4,5,6,7-tetrahydrothieno[2,3-c]pyridine-2-carbonitrile]",0.97 µM,0.07 µM
"Cn1cc(-c2c(F)cccc2[C@@H]2CN(C(=O)/C=C/[C@@H]3CCCN3)Cc3sc(C#N)cc32)c(C(F)(F)F)n1 [Example 128, (S)-4-(3-Fluoro-2-(1-methyl-3-(trifluoromethyl)-1H-pyrazol-4-yl)phenyl)-6-((E)-3-((S)pyrrolidin-2-yl)acryloyl)-4,5,6,7-tetrahydrothieno[2,3-c]pyridine-2-carbonitrile]",0.0658 µM,0.75 µM

# Further lines, with some results ahead:
IC50 [1],Compound,IC50 (SAE1)
0.331 µM,"CCN(CC)C/C=C/C(=O)N1Cc2sc(C#N)cc2[C@H](c2ccccc2-c2cn(CC)nc2C(F)(F)F)C1 [Example 28, (S, E)-6-(4-(Diethylamino)but-2-enoyl)-4-(2-(1-ethyl-3-(trifluoromethyl)-1 H-pyrazol-4-yl)phenyl)-4,5,6,7-tetrahydrothieno[2,3-c]pyridine-2-carbonitrile]",8.43 µM
2.24 µM,"CCn1cc(-c2ccccc2[C@@H]2CN(C(=O)/C=C/[C@@H](N)CO)Cc3sc(C#N)cc32)c(C(F)(F)F)n1 [Example 74, (S)-6-((R, E)-4-Amino-5-hydroxypent-2-enoyl)-4-(2-(1-ethyl-3-(trifluoromethyl)-1 H-pyrazol-4-yl)phenyl)-4,5,6,7-tetrahydrothieno[2,3-c]pyridine-2-carbonitrile]",2.84 µM
0.914 µM,CCn1cc(-c2ccccc2[C@H]2c3cc(C#N)sc3CN(C(=O)/C=C/CN(C)C)[C@@H]2C)c(C(F)(F)F)n1 [Compound 233],4.82 µM
0.503 µM,"CCn1cc(-c2ccccc2[C@@H]2CN(C(=O)/C=C/[C@H](C)NC)Cc3sc(C#N)cc32)c(C(F)(F)F)n1 [Example 84, (S)-4-(2-(1-Ethyl-3-(trifluoromethyl)-1 H pyrazol-4-yl)phenyl)-6-((S, E)-4-(methylamino)pent-2-enoyl)-4,5,6,7-tetrahydrothieno[2,3-c]pyridine-2-carbonitrile]",2.79 µM
1.15 µM,"CCn1cc(-c2ccc(F)cc2C2CN(C(=O)/C=C/CN(C)C)Cc3sc(C#N)cc32)c(C(F)(F)F)n1 (stereo not drawn) [Example 180, (E)-6-(4-(Dimethylamino)but-2-enoyl)-4-(2-(1-ethyl-3-(trifluoromethyl)-1 H-pyrazol-4-yl)-5-fluorophenyl)-4,5,6,7-tetrahydrothieno[2,3-c]pyridine-2-carbonitrile]",5.29 µM
0.2 µM,CCn1cc(-c2ccccc2[C@@H]2CN(C(=O)/C=C/CN(C)C)Cc3sc(C#N)c(Cl)c32)c(C(F)(F)F)n1 [Compound 247],1.66 µM
0.321 µM,"CCn1cc(-c2c(F)cc(F)cc2C2CN(C(=O)/C=C/CN(C)C)Cc3sc(C#N)cc32)c(C(F)(F)F)n1 (stereo not drawn) [Example 183, (E)-6-(4-(Dimethylamino)but-2-enoyl)-4-(2-(1-ethyl-3-(trifluoromethyl)-1 H-pyrazol-4-yl)-3,5-difluorophenyl)-4,5,6,7-tetrahydrothieno[2,3-c]pyridine-2-carbonitrile]",2.16 µM
0.46 µM,"CCn1cc(-c2c(C3CN(C(=O)/C=C/CN(C)C)Cc4sc(C#N)cc43)ccc(O)c2F)c(C(F)(F)F)n1 (stereo not drawn) [Example 189, (E)-6-(4-(Dimethylamino)but-2-enoyl)-4-(2-(1-ethyl-3-(trifluoromethyl)-1 H-pyrazol-4-yl)-3-fluoro-4-hydroxyphenyl)-4,5,6,7-tetrahydrothieno[2,3-c]pyridine-2-carbonitrile]",1.67 µM
0.263 µM,"CN(C)C/C=C/C(=O)N1Cc2sc(C#N)cc2[C@H](c2cccc(F)c2-c2cn(C)nc2C(F)(F)F)C1 [Example 250, (S)-6-((E)-4-(dimethylamino)but-2-enoyl)-4-((S)-3-fluoro-2-(1-methyl-3-(trifluoromethyl)-1 H-pyrazol-4-yl)phenyl)-4,5,6,7-tetrahydrothieno[2,3-c]pyridine-2-carbonitrile]",0.76 µM
0.891 µM,"CCn1cc(-c2c(C)cccc2C2CN(C(=O)/C=C/CN(C)C)Cc3sc(C#N)cc32)c(C(F)(F)F)n1 (stereo not drawn) [Example 200, (E)-6-(4-(Dimethylamino)but-2-enoyl)-4-(2-(1-ethyl-3-(trifluoromethyl)-1 H-pyrazol-4-yl)-3-methylphenyl)-4,5,6,7-tetrahydrothieno[2,3-c]pyridine-2-carbonitrile]",2.28 µM
1.46 µM,"CCn1cc(-c2c(Cl)cccc2C2CN(C(=O)/C=C/CN(C)C)Cc3sc(C#N)cc32)c(C(F)(F)F)n1 (stereo not drawn) [Example 201, (E)-4-(3-Chloro-2-(1-ethyl-3-(trifluoromethyl)-1 H-pyrazol-4-yl)phenyl)-6-(4-(dimethylamino)but-2-enoyl)-4,5,6,7-tetrahydrothieno[2,3-c]pyridine-2-carbonitrile]",1.56 µM
0.985 µM,"CN(C)C/C=C/C(=O)N1Cc2sc(C#N)cc2[C@H](c2ccccc2-c2cn(C)nc2C(F)(F)F)C1 [Example 3, (S, E)-6-(4-(Dimethylamino)but-2-enoyl)-4-(2-(1-methyl-3-(trifluoromethyl)-1 H-pyrazol-4-yl)phenyl)-4,5,6,7-tetrahydrothieno[2,3-c]pyridine-2-carbonitrile]",7.87 µM
